Reference: US7893061B2, “Alkyne-substituted pyridone compounds and methods of use” (Amgen Inc., priority 2006, dated 2011)

Target: T1, c-KIT kinase enzyme (Homo sapiens, UniProt P10721)
T1 construct: cKIT (6.25 μM) (catalytic domain, N-terminal GST tagged, unphosphorylated)
Experiment: cKIT Homogeneous Time Resolved Fluorescent (HTRF) kinase assay
Assay type: biochemical
Conditions: inhibition of the c-KIT kinase enzyme
Method: cKIT-Homogeneous Time Resolved Fluorescent (HTRF) Kinase Assay:
The purpose of this assay is to measure the inhibition of cKIT enzyme activity (autophosphorylation and phosphorylation of substrate) by small molecule test compounds. The cKIT HTRF assay begins with cKIT-catalyzed phosphorylation of biotinylated peptide Her-2 (N-GGMEDIYFEFMGGKKK-C) (SEQ ID 001) in the presence of ATP. The cKIT enzyme reaction is comprised of 1 μL of compound in 100% DMSO, 15 μL of 2× substrate mix (50 μM ATP and 2 μM biotinylated Her-2) and 15 μL of 2× cKIT (6.25 μM) (catalytic domain, N-terminal GST tagged, unphosphorylated) in 4 mM DTT all diluted in enzyme buffer (25 mM HEPES pH 7.5, 12.5 mM NaCl, 50 mM MgCl, 0.05% BSA). The reaction incubates for 90 min at RT. 160 Microliters of detection mixture containing 0.47 μg/mL steptavidin allophycocyanin and 29.7 pM europylatedanti-phosphotyrosine Ab (PT66, Perkin Elmer) in HTRF buffer (100 mM Hepes pH 7.5, 100 mM NaCl, 0.1% BSA, 0.05% Tween 20) is then added to stop the reaction, by diluting out the enzyme as well as to enable quantitation of phosphorylated Her-2. After 3 h at RT, the detection reaction is read in a Packard Discovery™ (model BD1000) plate reader. The wells are excited with coherent […] light and the ratio of delayed ([…] post excitation) emissions at […] (native europium fluorescence) and 665 nm (europium fluorescence transferred to allophycocyanin—an index of substrate phosphorylation) is determined. The proportion of substrate phosphorylated in the kinase reaction in the presence of compound compared with that phosphorylated in the presence of DMSO vehicle alone (HI control) is calculated using the formula:
% control (POC)=(cpd−average LO)/(average HI−average LO)*100. Data (consisting of POC and inhibitor concentration in μM) is fitted to a 4-parameter equation (y=A+((B−A)/(1+((x/C)^D))), where A is the minimum y (POC) value, B is the maximum y (POC), C is the x (compound concentration) at the point of inflection and D is the slope factor) using a Levenburg-Marquardt non-linear regression algorithm.

T1 sequence (P10721 589-937 limits assumed): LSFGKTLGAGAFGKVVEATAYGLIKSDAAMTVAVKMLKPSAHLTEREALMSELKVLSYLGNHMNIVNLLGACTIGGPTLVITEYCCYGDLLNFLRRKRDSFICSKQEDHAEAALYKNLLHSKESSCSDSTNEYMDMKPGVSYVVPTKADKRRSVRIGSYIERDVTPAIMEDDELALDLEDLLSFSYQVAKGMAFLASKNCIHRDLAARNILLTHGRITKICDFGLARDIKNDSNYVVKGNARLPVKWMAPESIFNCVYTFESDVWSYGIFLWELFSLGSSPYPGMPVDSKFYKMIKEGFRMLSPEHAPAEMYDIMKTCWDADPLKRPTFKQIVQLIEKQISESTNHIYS

| IC50 [nM] | SMILES |
| --- | --- |
| ≤ 100 | Cc1ccn(-c2cccc(C(F)(F)F)c2)c(=O)c1C#Cc1cnc(N)nc1 [Example 4, 3-((2-amino-5-pyrimidinyl)ethynyl)-4-methyl-1-(3-(trifluoromethyl)phenyl)-2(1H)-pyridinone] |
| ≤ 20 | CC(=O)N1CC(C)(C)c2ccc(-n3ccc(C)c(C#Cc4cnc(N)nc4)c3=O)cc21 [Example 8, 1-(1-acetyl-3,3-dimethyl-2,3-dihydro-1H-indol-6-yl)-3-((2-amino-5-pyrimidinyl)ethynyl)-4-methyl-2(1H)-pyridinone] |
| ≤ 10 | Cc1ccc(-n2ccc(C)c(C#Cc3cnc(N)nc3)c2=O)cc1C [Example 7, 3-((2-amino-5-pyrimidinyl)ethynyl)-1-(3,4-dimethylphenyl)-4-methyl-2(1H)-pyridinone] |
| ≤ 10 | Cc1ccn(-c2ccc3c(c2)NCC3(C)C)c(=O)c1C#Cc1cnc(N)nc1 [Example 6, 3-((2-amino-5-pyrimidinyl)ethynyl)-1-(3,3-dimethyl-2,3-dihydro-1H-indol-6-yl)-4-methyl-2(1H)-pyridinone] |
| ≤ 100 | Cc1ccn(-c2cccc(OC(F)(F)F)c2)c(=O)c1C#Cc1cnc(N)nc1 [Example 10, 3-((2-amino-5-pyrimidinyl)ethynyl)-4-methyl-1-(3-((trifluoromethyl)oxy)phenyl)-2(1H)-pyridinone] |
| ≤ 100 | Cc1ccn(-c2ccc3c(c2)CCO3)c(=O)c1C#Cc1cnc(N)nc1 [Example 9, 3-((2-amino-5-pyrimidinyl)ethynyl)-1-(2,3-dihydro-1-benzofuran-5-yl)-4-methyl-2(1H)-pyridinone] |
